Experimental data published in patent publication US4859584A (priority 1986, dated 1989).
Residues, ends and D or L forms follow the SMILES beside them.

Experiments:
rabbit red cells = settings: in vivo

In the case of `NCCCS(=O)(=O)O` [3-Amino-1-propanesulfonic acid], the “Doubling [time] of Yac cells” value (Yac cells) was 99.6.

For `NC(=O)CNCCS(=O)(=O)O` [ACES, 2-[(2-Amino-2-oxoethyl)amino]ethane sulfonic acid], the “Doubling [time] of Yac cells” value (Yac cells) was 1038.4.

For `O=C(O)CN(CCO)CCO` [BICINE, N,N-bis(2-hydroxyethyl)glycine], the “Doubling [time] of Yac cells” value (Yac cells) was 57.7.

`O=S(=O)(O)CCCNC1CCCCC1` [CAPS, 3-(Cyclohexylamino)-1-propanesulfonic acid] was tested, and the “Doubling [time] of Yac cells” value (Yac cells) was 45.8 and the “Effect on cell doubling time (in words)” value (Yac cells) was “negligible effects on cell doubling time”.

In the case of `O=S(=O)(O)CCNC1CCCCC1` [CHES, 2-(N-cyclohexylamino)ethane sulfonic acid], the “Doubling [time] of Yac cells” value (Yac cells) was 51.5.

In the case of `O=S(=O)(O)CC(O)CN(CCO)CCO` (centres unmarked) [DIPSO, 3-[N-N-bis(2-hydroxyethyl)amino]-2-hydroxypropane-sulfonic acid], the “Doubling [time] of Yac cells” value (Yac cells) was 36.7 and the “Effect on cell doubling time (in words)” value (Yac cells) was “negligible effects on cell doubling time”.

In the case of `CCCCCCCCCCCCCCN1C(=CC=Cc2oc3ccccc3[n+]2CCCCCCCCCCCCCC)Oc2ccccc21` [DiOC14 (3)], the “Cell doubling time / growth of labelled cells” value (V79 cells) was “Cell doubling time was unaffected”.

For `CCCCCCCCCCCCCCN1C(=CC=CC=Cc2sc3ccccc3[n+]2CCCCCCCCCCCCCC)Sc2ccccc21` [DiSC14 (5)], the “Effect on clearance rate of red blood cells” value (rabbit red cells) was “did not affect the clearance rate of red blood cells” and the “Lifetime of labelled red cells in circulation” value (rabbit red cells) was 52 days.

With `O=S(=O)(O)CCCN1CCN(CCO)CC1` [EPPS, N-(2-Hydroxyethyl)piperazine-N-3-propanesulfonic acid] the “Doubling [time] of Yac cells” value (Yac cells) was 32.2 and the “Effect on cell doubling time (in words)” value (Yac cells) was “negligible effects on cell doubling time”.

`N[C@H]1C(O)O[C@H](CO)[C@@H](O)[C@@H]1O` (some centres unmarked) [Glucosamine] was tested, and the “Doubling [time] of Yac cells” value (Yac cells) was 288.4.

In the case of `O=C[C@H](O)[C@@H](O)[C@H](O)[C@H](O)CO` [Glucose], the “Doubling [time] of Yac cells” value (Yac cells) was 34.5 and the “Effect on cell doubling time (in words)” value (Yac cells) was “negligible effects on cell doubling time”.

With `NCC(=O)NCC(=O)O` [Glycylglycine] (H-Gly-Gly-OH) the “Doubling [time] of Yac cells” value (Yac cells) was 66.9.

For `O=S(=O)(O)CC(O)CN1CCN(CCO)CC1` (centres unmarked) [HEPPSO, N-2-hydroxyethylpiperazine-N-2-hydroxypropane-sulfonic acid], the “Doubling [time] of Yac cells” value (Yac cells) was 23.4 and the “Effect on cell doubling time (in words)” value (Yac cells) was “negligible effects on cell doubling time”.

For `O=S(=O)(O)CC(O)CN1CCOCC1` (centres unmarked) [MOPSO, 3-(N-morpholino)-2-hydroxypropane-sulfonic acid], the “Doubling [time] of Yac cells” value (Yac cells) was 178.4.

`OC[C@H]1O[C@@](CO)(O[C@H]2O[C@H](CO)[C@@H](O)[C@H](O)[C@H]2O)[C@@H](O)[C@@H]1O` [Sucrose] was tested, and the “Doubling [time] of Yac cells” value (Yac cells) was 41.0 and the “Effect on cell doubling time (in words)” value (Yac cells) was “negligible effects on cell doubling time”.

`O=S(=O)(O)CCCNC(CO)(CO)CO` [TAPS, Tris(hydoxymethyl)-methylaminopropane sulfonic acid] was tested, and the “Doubling [time] of Yac cells” value (Yac cells) was 32.7 and the “Effect on cell doubling time (in words)” value (Yac cells) was “negligible effects on cell doubling time”.

For `O=S(=O)(O)CC(O)CNC(CO)(CO)CO` (centres unmarked) [TAPSO, 3-[N-tris(hydroxymethyl)methylamino]-2-hydroxypropanesulfonic acid], the “Doubling [time] of Yac cells” value (Yac cells) was 63.6.

With Phosphate Buffered Saline the “Doubling [time] of Yac cells” value (Yac cells) was 31.0.
